Measured values as given in the supplement of paper PMC10307832.

Key:
Experiment in all cases: relative viability (nuclei count vs DMSO), 5 days (fraction); higher = more cells survive
Dabrafenib + Olaparib = compound: CC(C)(C)c1nc(-c2cccc(NS(=O)(=O)c3c(F)cccc3F)c2F)c(-c2ccnc(N)n2)s1 [Dabrafenib] + O=C(c1cc(Cc2n[nH]c(=O)c3ccccc23)ccc1F)N1CCN(C(=O)C2CC2)CC1 [Olaparib] (partner 8 µM)
Summary of the method: (§1)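 A single step with final 0.05% Triton X-100, 1% formaldehyde and 1 ug/ml Hoechst fixed the cells and stained nuclei 5 days after treatment. Lung cancer cell lines in 1536-well plates had been treated by pin tool the day after seeding with one drug alone or a fixed anchor-drug dose plus five library-drug doses (not always all listed) in √10 steps, and nuclei were counted on 4× images. Relative viability is the ratio of nuclei in treated wells to nuclei in vehicle wells, taken as the median of duplicate plates.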

VX-702 + Foretinib = compound: NC(=O)c1ccc(N(C(N)=O)c2c(F)cccc2F)nc1-c1ccc(F)cc1F [VX-702] + COc1cc2c(Oc3ccc(NC(=O)C4(C(=O)Nc5ccc(F)cc5)CC4)cc3F)ccnc2cc1OCCCN1CCOCC1 [Foretinib] (partner 0.25 µM)
Summary of the method: as §1

VX-702 + Crizotinib = compound: NC(=O)c1ccc(N(C(N)=O)c2c(F)cccc2F)nc1-c1ccc(F)cc1F [VX-702] + C[C@@H](Oc1cc(-c2cnn(C3CCNCC3)c2)cnc1N)c1c(Cl)ccc(F)c1Cl [Crizotinib] (partner 1 µM)
Summary of the method: as §1

Dabrafenib + AZD7762 = compound: CC(C)(C)c1nc(-c2cccc(NS(=O)(=O)c3c(F)cccc3F)c2F)c(-c2ccnc(N)n2)s1 [Dabrafenib] + NC(=O)Nc1cc(-c2cccc(F)c2)sc1C(=O)N[C@H]1CCCNC1 [AZD7762] (partner 0.2 µM)
Summary of the method: as §1

Cell Line | relative viability (Dabrafenib + Olaparib; first compound 0.003 µM) | relative viability (Dabrafenib + Olaparib; first compound 0.009487 µM) | relative viability (Dabrafenib + Olaparib; first compound 0.03 µM) | relative viability (Dabrafenib + Olaparib; first compound 0.09487 µM) | relative viability (Dabrafenib + Olaparib; first compound 0.3 µM) | relative viability (VX-702 + Foretinib; first compound 0.02 µM) | relative viability (VX-702 + Foretinib; first compound 0.2 µM) | relative viability (VX-702 + Foretinib; first compound 0.6325 µM) | relative viability (VX-702 + Foretinib; first compound 2 µM) | relative viability (VX-702 + Crizotinib; first compound 0.02 µM) | relative viability (VX-702 + Crizotinib; first compound 0.2 µM) | relative viability (VX-702 + Crizotinib; first compound 0.6325 µM) | relative viability (VX-702 + Crizotinib; first compound 2 µM) | relative viability (Dabrafenib + AZD7762; first compound 0.003 µM) | relative viability (Dabrafenib + AZD7762; first compound 0.009487 µM) | relative viability (Dabrafenib + AZD7762; first compound 0.03 µM) | relative viability (Dabrafenib + AZD7762; first compound 0.09487 µM) | relative viability (Dabrafenib + AZD7762; first compound 0.3 µM)
NCI-H2085 | 0.759 | 0.769 | 0.823 | 0.71 | 0.854 | 1.05 | 0.898 | 0.967 | 0.968 | 0.921 | 0.926 | 1.03 | 0.908 | 0.724 | 1.11 | 1.01 | 0.874 | 1.01
NCI-H322M |  | 0.8 |  | 0.745 | 0.736 | 0.964 | 0.875 | 0.932 | 1 | 1.04 | 0.861 | 1.01 | 1.08 |  | 0.613 |  | 0.619 | 0.612
NCI-H1915 | 0.276 | 0.233 | 0.214 | 0.215 | 0.268 | 1.1 | 1.06 | 1.06 | 1.17 | 0.868 | 0.845 | 0.913 | 0.944 | 0.712 | 0.653 | 0.368 | 0.268 | 0.282
EPLC-272H | 0.784 | 0.931 | 0.717 | 0.749 | 0.964 | 0.6 | 0.659 | 0.667 | 0.817 | 0.968 | 0.773 | 0.983 | 1.16 |  | 0.283 | 0.174 | 0.207 | 0.155
NCI-H1734 |  | 0.69 | 0.504 | 0.465 | 0.557 | 0.791 | 0.729 | 0.704 | 0.813 | 0.593 | 0.55 | 0.573 | 0.71 |  | 0.587 | 0.5 | 0.452 | 0.378
NCI-H2405 |  | 0.838 | 0.674 | 0.804 | 0.89 | 1.08 | 0.98 | 0.965 | 1.02 | 0.791 | 0.813 | 0.774 | 0.99 |  | 0.805 | 0.592 | 0.597 | 0.598
LK-2 | 0.737 | 0.706 |  | 0.498 | 0.796 | 0.985 | 1.21 | 1.08 | 1.11 | 0.258 |  | 0.223 | 0.23 | 0.125 | 0.449 |  | 0.433 | 0.467
NCI-H1666 | 0.783 | 0.753 | 0.776 | 0.746 | 0.799 | 0.992 |  | 1.02 | 1.06 | 1.1 | 0.923 | 1.03 | 1.12 | 0.592 | 0.879 | 0.742 | 0.778 | 0.937
CAL-12T | 0.657 | 0.685 | 0.671 | 0.574 | 0.76 | 1.05 | 1.09 | 1.01 | 1.28 | 0.636 | 0.564 | 0.756 | 0.651 | 0.59 | 0.626 | 0.661 | 0.594 | 0.703
NCI-H1792 |  | 0.522 | 0.25 | 0.324 | 0.417 |  |  |  |  | 1 | 0.913 | 0.992 | 1.17 |  | 0.723 | 0.434 | 0.34 | 0.485
